# From publication PMC5374982 (Biochemistry, 2016)
# Like-named read-outs stand apart in the source and are kept apart here.
# What was measured:
# Test in all cases: 1H–[…] HSQC NMR chemical shift titration
# Assay type in all cases: binding
# XlnB2-E87A [1] = molecular target: T1, XlnB2-E87A (Streptomyces lividans, UniProt P26515, E128A)
# XlnB2-E87A [2] = molecular target: T1, XlnB2-E87A; remark: listed apart in the source
# xylanase B2 (XlnB2) = xylanase B2 (XlnB2) (Streptomyces lividans, UniProt P26515)
compound,measurement,setting,value
"OC1OC[C@@H](O[C@@H]2OC[C@@H](O[C@@H]3OC[C@@H](O[C@@H]4OC[C@@H](O[C@@H]5OC[C@@H](O)[C@H](O)[C@H]5O)[C@H](O)[C@H]4O)[C@H](O)[C@H]3O)[C@H](O)[C@H]2O)[C@H](O)[C@H]1O (stereo partly drawn) [X5, xylopentaose]",Kd,XlnB2-E87A [1],7.93 mM
"OC1OC[C@@H](O[C@@H]2OC[C@@H](O)[C@H](O)[C@H]2O)[C@H](O)[C@H]1O (stereo partly drawn) [X2, xylobiose]",Kd,XlnB2-E87A [2],8.71 mM
same,Kd,xylanase B2 (XlnB2),7.07 mM
